Laboratory results published in patent US20100331297A1, “MODULATION OF PROTEIN TRAFFICKING” (FOLDRX PHARMACEUTICALS, INC., priority 2007, published 2010).

How the values were obtained:
ΔF508 CFTR [1] = target: T1, ΔF508 CFTR (Homo sapiens, UniProt P13569, DEL508-508); assay: Corrector activity, YFP halide (iodide) quenching assay in FRT cells expressing ΔF508 CFTR; format: cell-based; set-up: expressed in transfected cells; host or cells: Fischer rat thyroid (FRT) cells; conditions: FRT cells ΔF508 CFTR/YFP, 24 hours with compound at 37° C., forskolin and genistein; read-out: Corrector EC50
T1 sequence (P13569 with tags, fused parts or gaps DEL508-508): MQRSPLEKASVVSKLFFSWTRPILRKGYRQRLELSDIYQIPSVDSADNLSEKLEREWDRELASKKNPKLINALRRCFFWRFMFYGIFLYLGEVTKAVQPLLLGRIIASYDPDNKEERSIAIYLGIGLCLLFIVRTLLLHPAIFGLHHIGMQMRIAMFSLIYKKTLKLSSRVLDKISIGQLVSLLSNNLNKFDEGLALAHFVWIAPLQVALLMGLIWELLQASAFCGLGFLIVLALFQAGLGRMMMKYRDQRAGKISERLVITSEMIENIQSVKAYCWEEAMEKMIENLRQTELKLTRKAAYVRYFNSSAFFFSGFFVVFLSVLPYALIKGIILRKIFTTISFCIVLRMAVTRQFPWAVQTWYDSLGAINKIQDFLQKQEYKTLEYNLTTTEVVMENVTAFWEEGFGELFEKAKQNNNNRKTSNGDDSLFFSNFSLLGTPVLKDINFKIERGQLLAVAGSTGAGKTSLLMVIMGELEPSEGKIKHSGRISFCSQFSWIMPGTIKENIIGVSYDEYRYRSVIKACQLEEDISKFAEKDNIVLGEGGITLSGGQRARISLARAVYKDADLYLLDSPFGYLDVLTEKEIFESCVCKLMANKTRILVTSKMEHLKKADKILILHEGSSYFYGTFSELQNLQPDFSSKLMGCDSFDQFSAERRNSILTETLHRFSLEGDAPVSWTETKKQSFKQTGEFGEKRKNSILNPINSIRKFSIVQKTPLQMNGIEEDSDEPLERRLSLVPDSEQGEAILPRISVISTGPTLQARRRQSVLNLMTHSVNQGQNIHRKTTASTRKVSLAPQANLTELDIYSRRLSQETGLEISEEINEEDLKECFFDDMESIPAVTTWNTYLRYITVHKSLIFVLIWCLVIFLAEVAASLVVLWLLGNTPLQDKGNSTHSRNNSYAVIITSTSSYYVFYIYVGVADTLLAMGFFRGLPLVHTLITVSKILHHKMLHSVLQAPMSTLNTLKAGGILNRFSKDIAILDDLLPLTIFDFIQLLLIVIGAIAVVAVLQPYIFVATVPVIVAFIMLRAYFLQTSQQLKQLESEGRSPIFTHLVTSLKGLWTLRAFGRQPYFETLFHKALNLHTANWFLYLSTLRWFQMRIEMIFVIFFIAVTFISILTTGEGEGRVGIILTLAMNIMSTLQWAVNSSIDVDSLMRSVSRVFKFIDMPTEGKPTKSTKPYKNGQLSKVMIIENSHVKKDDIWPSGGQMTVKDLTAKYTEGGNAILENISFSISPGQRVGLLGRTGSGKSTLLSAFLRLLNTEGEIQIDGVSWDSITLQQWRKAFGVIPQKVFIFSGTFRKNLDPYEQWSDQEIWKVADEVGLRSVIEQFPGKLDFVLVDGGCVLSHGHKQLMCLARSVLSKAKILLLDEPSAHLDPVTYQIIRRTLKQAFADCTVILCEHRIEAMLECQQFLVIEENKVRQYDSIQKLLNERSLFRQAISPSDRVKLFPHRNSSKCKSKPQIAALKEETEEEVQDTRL
In short: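 FRT cells co-expressing ΔF508 CFTR and halide-sensitive YFP were incubated 24 h at 37° C with compounds, then stimulated 30 min at 37° C in PBS with forskolin and genistein. Endpoint fluorescence after iodide injection was normalized to initial reading; EC50 from 4-parameter fit with bottom constrained to DMSO control.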

ΔF508 CFTR [2] = target: T1, ΔF508 CFTR; assay: Potentiator activity, YFP halide (iodide) quenching assay in FRT cells expressing ΔF508 CFTR, 27° C. pre-incubation; format: cell-based; set-up: expressed in transfected cells; host or cells: Fischer rat thyroid (FRT) cells; Potentiator activity compared to the DMSO control (no EC50 obtained): scale not given here; conditions: for EC50: FRT cells ΔF508 CFTR/YFP, 24 hours at 27° C., compound with forskolin 30 min
In short: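 FRT cells stably co-expressing ΔF508 CFTR and halide-sensitive YFP, grown 24 h at 37° C. then 24 h at 27° C. to raise surface CFTR. Compounds in PBS with forskolin, 30 min at 37° C.; iodide injected and YFP quenching (ex 485/em 530 nm) followed. EC50 from normalized endpoint fluorescence.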

| EC50 (ΔF508 CFTR [1]) [µM] | Potentiator activity compared to the DMSO control (no EC50 obtained) (ΔF508 CFTR [2]; at 12 μm) | EC50 (ΔF508 CFTR [2]) [µM] | Compound |
| --- | --- | --- | --- |
| > 15 | # (at 12 μm) |  | CC(C)(C)n1nc(Oc2cccc3ccccc23)c2c(N)ncnc21 [compound 198, 1-tert-Butyl-3-(naphthalen-1-yloxy)-1H-pyrazolo[3,4-d]pyrimidin-4-ylamine] |
| > 15 |  | < 2 | CC(C)(C)n1nc(Oc2cccc(F)c2)c2c(N)ncnc21 [compound 200] |
| 5 to 10 |  | 5 to 10 | CC(C)(C)n1nc(Oc2cccc(C#N)c2)c2c(N)ncnc21 [compound 201] |
| 5 to 10 |  | > 15 | Nc1ncnc2c1c(-c1ccc(Cl)cc1)nn2CC(F)F [compound 202] |
| > 15 |  | < 2 | CC(C)(C)n1nc(Oc2ccc(C#N)cc2)c2c(N)ncnc21 [compound 205] |
| > 15 |  | > 15 | Cc1ccc(F)c(Oc2nn(C(C)(C)C)c3ncnc(N)c23)c1 [compound 206] |
| > 15 |  | < 2 | CCn1nc(Sc2cccc3ccccc23)c2c(N)ncnc21 [compound 207] |
| > 15 |  | < 2 | CCn1nc(Sc2ccc(F)cc2)c2c(N)ncnc21 [compound 208] |
| > 15 |  | > 15 | CC(C)(C)n1nc(Oc2cccc3c2CCCC3)c2c(N)ncnc21 [compound 209] |
| 5 to 10 |  | < 2 | CC(C)(C)n1nc(Oc2ccc3c(c2)CCC3)c2c(N)ncnc21 [compound 210] |
| > 15 |  | > 15 | CCn1nc(S(=O)(=O)c2cccc3ccccc23)c2c(N)ncnc21 [compound 212] |
| > 15 |  | < 2 | CCn1nc(Sc2ccc(Cl)cc2)c2c(N)ncnc21 [compound 216] |
| > 15 |  | > 15 | CCn1nc(Sc2ccccc2F)c2c(N)ncnc21 [compound 217] |
| 5 to 10 |  | < 2 | CCn1nc(Sc2cccc(C)c2)c2c(N)ncnc21 [compound 218] |
| > 15 |  | > 15 | CCn1nc([S+]([O-])c2cccc(C)c2)c2c(N)ncnc21 (stereo not drawn) [compound 224] |
| > 15 |  | < 2 | CCn1nc(Sc2cccc(Cl)c2)c2c(N)ncnc21 [compound 226] |
| > 15 |  | > 15 | CCn1nc(Sc2ccccc2Cl)c2c(N)ncnc21 [compound 227] |
| > 15 |  | < 2 | Nc1ncnc2c1c(Oc1cccc(Cl)c1)nn2C1CCC1 [compound 228] |
| > 15 |  | > 15 | CC(C)(C)n1nc(Oc2ccc(OCc3ccccc3)cc2)c2c(N)ncnc21 [compound 233] |
| > 15 |  | < 2 | CCn1nc(Sc2cccc(Br)c2)c2c(N)ncnc21 [compound 236] |
| > 15 |  | > 15 | CC(C)(C)n1nc(Oc2ccc(C(=O)c3ccccc3)cc2)c2c(N)ncnc21 [compound 237] |
| > 15 |  | > 15 | CCn1nc([S+]([O-])c2cccc(F)c2)c2c(N)ncnc21 (stereo not drawn) [compound 238] |
| 5 to 10 |  | < 2 | CCC(=O)Nc1ncnc2c1c(-c1ccc(Cl)cc1)nn2C(C)(C)C [compound 240] |
| > 15 |  | > 15 | CCn1nc([S+]([O-])c2cccc3ccccc23)c2c(N)ncnc21 (stereo not drawn) [compound 241] |
| > 15 |  | 5 to 10 | CC(C)(C)n1nc(Sc2cccc(C(F)(F)F)c2)c2c(N)ncnc21 [compound 244, 1-tert-Butyl-3-(3-trifluoromethyl-phenylsulfanyl)-1H-pyrazolo[3,4-d]pyrimidin-4-ylamine] |
| > 15 |  | 5 to 10 | CC(C)(C)n1nc(Sc2ccccn2)c2c(N)ncnc21 [compound 245] |
| 2 to 5 |  | 5 to 10 | CC(C)Cn1nc(-c2ccc(Cl)cc2)c2c(N)ncnc21 [compound 252] |

| EC50 (ΔF508 CFTR [1]) [µM] | Potentiator activity compared to the DMSO control (no EC50 obtained) (ΔF508 CFTR [2]; at 12 μm) | EC50 (ΔF508 CFTR [2]) [µM] | Compound |
| --- | --- | --- | --- |
| > 15 |  | < 2 | Nc1ncnc2c1c(Oc1cccc(Cl)c1)nn2CC1CCC1 [compound 256] |
| < 2 |  | < 2 | Nc1ncnc2c1c(-c1ccc(Cl)cc1)cn2C1CCC1 [compound 257] |
| 2 to 5 |  | 2 to 5 | Nc1ncnc2c1c(-c1ccc(Cl)cc1)cn2CC1CCC1 [compound 262] |
| > 15 |  | > 15 | Nc1ncnc2c1c(Oc1cccc(Cl)c1)nn2CC(F)F [compound 263] |
| > 15 |  | 2 to 5 | CCn1nc(Sc2cc(F)cc(F)c2)c2c(N)ncnc21 [compound 264] |
| 5 to 10 |  | < 2 | CC(C)C(=O)Nc1ncnc2c1c(-c1ccc(Cl)cc1)nn2C(C)(C)C [compound 265] |
| 5 to 10 |  | < 2 | CC(C)(C)n1nc(-c2ccc(Cl)cc2)c2c(NC(=O)C3CCCC3)ncnc21 [compound 266] |
| > 15 |  | > 15 | CC(C)(C)n1nc(-c2ccc(Cl)cc2)c2c(NC(=O)N3CCOCC3)ncnc21 [compound 268] |
| > 15 |  | > 15 | CN(C)C(=O)Nc1ncnc2c1c(-c1ccc(Cl)cc1)nn2C(C)(C)C [compound 269] |
| > 15 |  | > 15 | CCOC(=O)N1CC(n2nc(-c3ccc(Cl)cc3)c3c(N)ncnc32)C1 [compound 270] |
| < 2 |  | 5 to 10 | CCC(=O)Nc1ncnc2c1c(-c1ccc(Cl)cc1)cn2CC [compound 271] |
| < 2 |  | > 15 | CCn1cc(-c2ccc(Cl)cc2)c2c(NC(=O)c3ccccc3)ncnc21 [compound 272] |
| > 15 |  | > 15 | CC(C)(C)n1nc(-c2ccc(Cl)cc2)c2c(NC(=O)N3CCCCC3)ncnc21 [compound 273] |
| 5 to 10 |  | < 2 | CC(C)(C)n1nc(-c2ccc(O)cc2Cl)c2c(N)ncnc21 [compound 276] |
| > 15 |  | > 15 | Nc1ncnc2c1c(-c1ccc(Cl)cc1)nn2-c1nc2ccccc2o1 [compound 277] |
| > 15 |  | < 2 | Nc1ncnc2c1c(Oc1cccc(Cl)c1)nn2CC1CC1 [compound 278] |
| > 15 |  | > 15 | CCn1nc([S+]([O-])c2cccc(Cl)c2)c2c(N)ncnc21 (stereo not drawn) [compound 279] |
| > 15 |  | > 15 | CCn1nc(Sc2cccc(OC)c2)c2c(N)ncnc21 [compound 280] |
| > 15 |  | > 15 | CCn1nc(Sc2cccc(OC(F)(F)F)c2)c2c(N)ncnc21 [compound 281] |
| > 15 |  | > 15 | CCn1cc(-c2ccc(Cl)cc2)c2c(N(C)C(C)=O)ncnc21 [compound 282] |
| > 15 |  | > 15 | CCn1nc([S+]([O-])c2cc(F)cc(F)c2)c2c(N)ncnc21 (stereo not drawn) [compound 283] |
| > 15 |  | > 15 | CCn1nc([S+]([O-])c2cccc(C(F)(F)F)c2)c2c(N)ncnc21 (stereo not drawn) [compound 284] |
| > 15 |  | > 15 | CCn1nc([S+]([O-])c2cccc(O)c2)c2c(N)ncnc21 (stereo not drawn) [compound 285] |
| > 15 |  | > 15 | CCn1nc(Nc2cccc(Cl)c2)c2c(N)ncnc21 [compound 286] |
| > 15 |  | > 15 | Nc1ncnc2c1c(Oc1cccc(Cl)c1)nn2-c1ncccn1 [compound 287] |
| > 15 |  | > 15 | Nc1ncnc2c1c(-c1ccc(Cl)cc1)nn2-c1ccc([N+](=O)[O-])cn1 [compound 288] |

| Compound | EC50 (ΔF508 CFTR [1]) [µM] | Potentiator activity compared to the DMSO control (no EC50 obtained) (ΔF508 CFTR [2]; at 12 μm) | EC50 (ΔF508 CFTR [2]) [µM] |
| --- | --- | --- | --- |
| Nc1ncnc2c1c(-c1ccc(Cl)cc1)nn2C1CCCC1 [compound 247] | 2 to 5 |  | 2 to 5 |
